Source: patent US7727553B2, “Oral preparations with favorable disintegration characteristics” (Dainippon Sumitomo Pharma Co., Ltd., priority 2000, dated 2010)

Experiment: physchem
Conditions: for solubility at 30 min: 22.5 °C, thermodynamic from solid
Description: According to the method disclosed in the Pharmacopoeia of Japan, the solubility (μg/ml) of Compound 1 was measured when treated for 30 minutes under the following conditions. • (1) Conditions for measurement of solubility:
Solvent: Diluted McIlvaine buffer

- solubility of Compound 1 (in words): quite low
- solubility at 30 min (pH 3, aqueous buffer): > 20 µg/mL
- solubility at 30 min (pH 4, aqueous buffer): 8.2 µg/mL
- solubility at 30 min (pH 5, aqueous buffer): 0.7 µg/mL
SMILES: Cl.O=C1[C@@H]2[C@H]3CC[C@H](C3)[C@@H]2C(=O)N1C[C@@H]1CCCC[C@H]1CN1CCN(c2nsc3ccccc23)CC1 [Compound 1, N-[4-[4-(1,2-benzisothiazol-3-yl)-1-piperazinyl]-(2R, 3R)-2,3-tetramethylenebutyl]-(1′R, 2′S, 3′R, 4′S)-2,3-bicyclo[2.2.1]heptanedicarboximide hydrochloride]
